Series [1] deals with mice. The settings on record: intraperitoneal administration; cited from earlier work.
For series [2], the system named is mice. The conditions noted are these: cited from earlier work.
Series [3] deals with corazol rat epilepsy model (convulsions caused by corazol). In words: Corazol model of epilepsy: development of seizures. Format: in vivo. The conditions noted are these: rats. The procedure: Experiments were carried out on male Wistar rats with a body weight of 180-250 g.
Corazol at a dose of 80 mg/kg is administered subcutaneously in the cervical area of the back.
The intensity of the development of a convulsive seizure was studied on a 6-point scale: • 0—lack of convulsive activity; • 1—hyperkinesia; • 2—trembling, twitching, excessive grooming, stereotypical movements; • 3—clonic convulsions of the front legs with lifting on the hind legs; • 4—pronounced tonic-clonic convulsions, the fall of the animal to the side, the presence of a phase of tonic extensia; • 5—repeated tonic-clonic convulsions, loss of posture; • 6—complete tonic attack with apnea, death of the animal.
To study the effect of the claimed compound 1 on the development of convulsions caused by corazol, compound 1 is dissolved in physiological saline and administered as follows: • at doses of 25 mg/kg, 100 mg/kg intraperitoneally (ip) 30 minutes before the induction of convulsions with corazol; • at doses of 100 mg/kg, 200 mg/kg, 250 mg/kg intragastrically 1 hour before the induction of convulsions with corazol.
The development of convulsive disorder is assessed by the following indicators: • time before the onset of seizures (min); • duration of seizures (sec.); • intensity of seizures on a 6-point scale; • number of animals with repeated convulsions; • number of dead animals in the group.
For statistical processing of experimental data, statistical programs Origin 8.5 and IBM SPSS Statistics are used.
The significance of differences between populations is evaluated by the Mann-Whitney U-test.

Series [4] is described as follows: Acute toxicity in mice with intraperitoneal administration (compound 1). The conditions noted are these: both sexes, CD-1 (ICR), mouse, in vivo, ip, printed 'in rats', study in CD-1 mice. The procedure: The study was performed on mice of the CD-1 (ICR) line (6-8 weeks, weight not less than 18 g) of both sexes. A single intraperitoneal injection of compound 1 was used at doses of 1000 mg/kg and 2000 mg/kg in a volume of 1 ml per 40 g of mouse body mass using an insulin syringe. The volume of administration was calculated individually for each animal, based on the body mass recorded immediately before the introduction of the substance.
To prepare a dose of 2000 mg/kg for administration to mice, a portion of 800 mg of compound 1 in a polystyrene boat on a Vibra scale (Shinko Denshi, Japan) was weighed, transferred to a volumetric flask of accuracy class A per 10 ml of volume, dissolved in physiological saline and adjusted to the mark. The solution was filtered with 0.22 μm syringe nozzles (Jet Biofil). […]
(§1) Animals were clinically examined individually after administration for 30 minutes, then at least once per hour for 4 hours, then daily once a day for 14 days. Body mass was recorded immediately before the administration of the preparation to calculate the volume of administration, then once every two days.

Series [5] has as its system penicillin rat epilepsy model (high-amplitude electric discharges, HAED). In words: Penicillin model of epilepsy: effect on the electrical activity of the brain. It is filed as in vivo. The procedure: Experiments were carried out on male Wistar rats with a body weight of 180-250 g. Under isoflurane anesthesia (1.5%), surgical preparation for the experiment is performed. Urethane ([…]) is used for anesthesia during the experiment. Next, the animal is fixed in a stereotactic installation. 2×2 mm holes are drilled in the skulls of animals over symmetrical areas of the sensorimotor cortex of the brain and a 16-channel silicon-based probe (Neuronexus) is installed with a step of 100 μm between the recording electrodes to divert electrical activity from these areas. A silver chloride electrode, which serves as a combined ground electrode and a reference electrode, is introduced into the cerebellum or the visual cortex to a depth of 2-3 mm. To create a focus of epileptic activity in parallel to the somatosensory zones, 2×2 mm holes are drilled in the area of the visual cortex, into which 10 μl of a solution of sodium salt of benzylpenicillin are applied at a concentration of 40,000 IU/ml. […] The amplitude-frequency characteristics of epileptiform activity are evaluated. […] For statistical processing of experimental data, statistical programs Origin 8.5 and IBM SPSS Statistics are used. The significance of differences between populations is evaluated by the Mann-Whitney U-test. […] Their presence, frequency and amplitude are characteristic indicators of brain epileptic activity.

A short description of series [6]: Acute toxicity in mice with oral administration (compound 1). The conditions noted are these: female, CD-1 (ICR), mouse, in vivo, 5000 mg/kg, printed 'in rats', study in CD-1 mice. The procedure: The study was performed on mice of the CD-1 (ICR) line (6-8 weeks, weight not less than 18 g, females). Two-fold intragastric (oral) administration of compound 1 in a volume of not more than 0.5 ml/30 g of body weight of the mouse using a gastric tube was used.
The introduction was carried out to animals deprived of food (for a period of not less than 8 hours) with free access to water. The volume of administration was calculated individually for each animal, based on the body mass recorded immediately before the introduction of the substance. Access to water and feed was renewed one hour after administration.
To prepare a dose of 5000 mg/kg for administration to mice, a portion of 1.5 g of compound 1 in a polystyrene boat on a Vibra scale (Shinko Denshi, Japan) was weighed, transferred to a volumetric flask of accuracy class A per 10 ml of volume, dissolved in distilled water and adjusted to the mark. Due to the insufficient solubility of compound 1, another 10 ml of distilled water is added to the resulting volume of the solution.
as §1

Series [7] has as its system rats. The conditions noted are these: intravenous injection; cited from earlier work.
In series [8] the test system is mice. The settings on record: intravenous injection; cited from earlier work.
Series [9] concerns rats. The conditions noted are these: oral administration; cited from earlier work.

SMILES strings stand for the structures. Entries after “also recorded” stand apart in the source; their conditions may differ. Read-outs that look alike come from different tables or passages of the source.

For `NC(=O)N1c2ccccc2C=Cc2ccccc21` [carbamazepine], the LD50 is given as 114 mg/kg in the series with mice [1] and 529 mg/kg in the series on mice [2] (mice, oral administration).
In the case of `Cc1nc(CS(=O)(=O)O)c(CO)c(CO)c1O` [compound 1, (5-hydroxy-3,4-bis (hydroxymethyl)-6-methylpyridin-2-yl) methanesulfonic acid], in series [3] (250 mg/kg oral administration, corazol model), the “prevention / reduction of development of a seizure” value is reported as “best results in reducing the development of a seizure; also recorded: complete prevention of seizures in some cases”. Besides, the “intensity and duration of seizures” value in series [3] (25 and 100 mg/kg intraperitoneally and 100 and 200 mg/kg orally, corazol model) is “decrease in the intensity and duration of seizures”. Also, the “effect on development of a seizure relative to 250 mg/kg oral” value in series [3] (100 and 200 mg/kg oral, corazol model) was “slightly less pronounced”. For the same molecule, in series [3] (all dosages, corazol model), the deaths result is on record as “completely prevents deaths” and the “likelihood of recurrence of seizures” value is recorded as “greatly reduces the likelihood of recurrence of seizures”. In series [3] (corazol 80 mg/kg sc, oral and intravenous (so in the source) ways of administration, all doses), the “duration and intensity of seizures” value is “dose-dependent decrease in the duration and intensity of seizures”. The LD50 at 14 days in [4] was > 2000 mg/kg. Moreover, in series [5] (compound 1 25-100 mg/kg against sodium valproate 600 mg/kg, ip, penicillin model), the “antiepileptic effect compared with sodium valproate” value was 6-24 times. Besides, the “suppression of HAED (epileptic electrical activity of the brain)” value in series [5] (compound 1 at 25, 50, 100 mg/kg ip, given 30 min after penicillin, 60 minutes after administration, rats) is on record as “completely suppressing HAED; also recorded: completely suppresses the epileptic electrical activity of the brain”. Further, the “amplitude and frequency of HAED” value in series [5] (compound 1 at 25, 50, 100 mg/kg ip, rats, penicillin model) was “decrease in the amplitude and frequency of HAED”. For the same molecule, the LD50 at 14 days in series [6] was > 5000 mg/kg.
In the case of `CCC1(C)CC(=O)NC1=O` (stereo not drawn) [ethosuximide], the 50% lethal dose (LD50) in the series on mice [2] (mice, oral administration) is 1530 mg/kg.
For `NCC1(CC(=O)O)CCCCC1` [gabapentinum], the LD50 with rats [7] was > 300 mg/kg; with mice [8], 1000 to 2000 mg/kg; in the series with rats [9] it was > 5000 mg/kg; in the series on mice [2] (mice, oral administration), > 5000 mg/kg.
In the case of `Nc1nnc(-c2cccc(Cl)c2Cl)c(N)n1` [lamotrigine], in the series on mice [2] (mouse, in vivo, po), the median lethal dose (LD50) is on record as 269 mg/kg.
For the molecule `CC[C@@H](C(N)=O)N1CCCC1=O` [levetiracetam], the median lethal dose (LD50) in the series on mice [2] (mice, oral administration) is > 5000 mg/kg.
For `CCC1(c2ccccc2)C(=O)NC(=O)NC1=O` [phenobarbital], the median lethal dose (LD50) in the series on rats [9] is listed as 163 mg/kg.
Turning to `O=C1N=C([O-])NC1(c1ccccc1)c1ccccc1.[Na+]` [sodium phenytoin], in the series on mice [2] (mice, oral administration), the LD50 was 165 mg/kg.
Regarding `CCCC(CCC)C(=O)[O-].[Na+]` [sodium valproate], the 50% lethal dose (LD50) in the series on mice [1] is given as 470 mg/kg; in the series on mice [2] (mice, oral administration), 977 mg/kg.
Take `CC1(C)O[C@@H]2[C@@H](CO[C@@]3(COS(N)(=O)=O)OC(C)(C)O[C@@H]23)O1` [topiramate]: the LD50 with rats [9] is on record as 3570 mg/kg.
In the case of `NS(=O)(=O)Cc1noc2ccccc12` [zonisamide], the LD50 with mice [1] is 699 mg/kg; in the series with mice [2] (mice, oral administration) it was 1829 mg/kg.

The values above are taken from patent US10844018B2, “Pyridoxine derivative for treatment of epilepsy” (AO “TATKHIMFARMPREPARATY”, priority 2017, dated 2020).
